US11278550B2, “Compositions and methods for the treatment of Prader-Willi syndrome” (Duke University, priority 2016, dated 2022)
“Also recorded” adds a separate entry of the source.

Assays:
[1] = tested on: m+/pΔS-U and WT mice; experiment: Toxicity evaluation in mice (body weight, neurological screening, blood, histopathology); format: in vivo, mouse
Protocol: Brain, liver, lung, kidney and heart tissues from 3-month-old mice were fixed in 10% neutral buffered formalin (NBF: 10 ml of Formalin (37% stock), 90 ml of deionized water, 4 g/liter of NaH2PO4, 6.5 g/liter Na2HPO4), embedded in paraffin, sectioned at 5 μm, stained with hematoxylin and eosin, and images examined by a board-certified toxicological pathologist.
Blood was collected from 3-month-old mice into microcontainers or hematology assay tubes using jugular vein bleeding puncture. A serum metabolic panel was obtained using the Heska Dry Chem analyzer (Cuattro Veterinary USA). The metabolic panel contained chem and electrolyte, liver and kidney functions. For hematology analysis, we tested whole blood using Procyte (IDEXX).
General health of mice was evaluated using a modified version of standard test battery for behavioral phenotyping (see 57). Observational assessment included the evaluation of body weight, body core temperature, overt behavioral signs (coat appearance, body posture and secretary signs) and sensory functions (visual ability, audition, tactile percep- tion and vestibular function). Table 6 indicates the mouse sex and age information.

[2] = tested on: PWS-IC; experiment: Bisulfite genomic sequencing of PWS-IC, liver of PWS mice; format: in vivo; conditions: livers from PWS mouse models
Protocol: (§1) Genomic DNA was isolated from human PWS fibroblasts or mouse tissues. DNA (1 μg) was then treated by bisulfite using the Epi-Tect bisulfite kit (Qiagen), and 125 ng input DNA was used per PCR amplification. PCR products were sub-cloned into pGEM-T easy vector (Promega) and an average of 15 clones were sequenced. DNA sequencing results were analyzed using BISMA web-based analysis platform with a setting for individual clones with <95% bisulfite conversion and <90% sequence identity to be excluded in the analysis.

[3] = target: T1, G9a (Mus musculus, UniProt Q9Z148); conditions: single dose of 5 mg/kg i.p.; cited from earlier work
T1 construct: from tissue
T1 sequence (Q9Z148 1-1263): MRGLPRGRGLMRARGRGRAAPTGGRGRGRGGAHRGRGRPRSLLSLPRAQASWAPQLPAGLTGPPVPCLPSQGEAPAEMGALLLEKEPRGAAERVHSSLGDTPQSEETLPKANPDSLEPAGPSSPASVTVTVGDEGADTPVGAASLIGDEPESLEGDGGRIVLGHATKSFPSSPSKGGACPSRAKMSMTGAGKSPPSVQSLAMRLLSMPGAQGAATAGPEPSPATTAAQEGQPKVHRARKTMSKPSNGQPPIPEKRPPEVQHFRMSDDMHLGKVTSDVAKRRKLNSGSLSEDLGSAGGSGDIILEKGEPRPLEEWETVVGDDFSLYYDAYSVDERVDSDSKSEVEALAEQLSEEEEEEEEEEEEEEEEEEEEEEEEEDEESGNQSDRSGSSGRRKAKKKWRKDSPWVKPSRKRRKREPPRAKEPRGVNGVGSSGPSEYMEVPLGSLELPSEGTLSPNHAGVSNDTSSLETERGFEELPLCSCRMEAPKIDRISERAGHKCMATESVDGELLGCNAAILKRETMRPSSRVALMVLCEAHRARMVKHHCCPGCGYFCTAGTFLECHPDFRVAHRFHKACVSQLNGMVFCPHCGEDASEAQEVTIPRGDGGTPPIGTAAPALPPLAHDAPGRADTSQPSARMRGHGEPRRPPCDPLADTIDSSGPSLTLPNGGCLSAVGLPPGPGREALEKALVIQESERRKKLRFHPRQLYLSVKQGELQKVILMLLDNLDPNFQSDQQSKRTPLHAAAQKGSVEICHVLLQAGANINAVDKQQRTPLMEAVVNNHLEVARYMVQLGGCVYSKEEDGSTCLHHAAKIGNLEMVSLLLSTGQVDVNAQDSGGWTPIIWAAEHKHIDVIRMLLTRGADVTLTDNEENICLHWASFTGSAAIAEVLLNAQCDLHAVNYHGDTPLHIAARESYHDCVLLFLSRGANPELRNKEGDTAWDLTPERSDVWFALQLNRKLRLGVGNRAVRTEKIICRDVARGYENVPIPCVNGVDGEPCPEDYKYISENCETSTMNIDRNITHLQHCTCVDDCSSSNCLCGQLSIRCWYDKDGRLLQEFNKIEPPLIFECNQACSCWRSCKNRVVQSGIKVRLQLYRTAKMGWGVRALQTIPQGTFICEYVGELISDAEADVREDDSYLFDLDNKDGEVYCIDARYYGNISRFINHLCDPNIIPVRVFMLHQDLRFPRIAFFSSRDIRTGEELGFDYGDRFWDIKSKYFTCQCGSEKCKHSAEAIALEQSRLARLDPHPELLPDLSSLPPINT

[4] = tested on: m+/pΔS-U mice; experiment: Survival and growth in PWS mouse model; format: in vivo; conditions: between P10 and P19, treated m+/pΔS-U pups
Protocol: The dosage and duration vary depending on the age and condition of animals.
The m/p^ΔS-U pups were treated between postnatal day 7 (P7) and P12, as most m^+/p^ΔS-U pups died before weaning. For neonatal PWS mice, a lower dose regimen of 2.5 mg/kg i.p. injections for 5 consecutive days was used. […] Pups at postnatal day 7 (P7) were treated with a daily dose of 2.5 mg/kg for 5 days.

[5] = tested on: PWS-IC; experiment: Bisulfite genomic sequencing of PWS-IC, human PWS cells; format: cell-based
Protocol: as §1

[6] = tested on: human PWS fibroblast cells; experiment: Cell viability (CellTox Green Cytotoxicity Assay); format: cell-based; conditions: 1-4 μM, 72 hours
Protocol: Cell viability was measured by fluorescence using CellTox™ Green Cytotoxicity Assay (Promega, cat. no. G8741) according to the manufacturer's instructions.

[7] = tested on: human PWS fibroblasts; experiment: Chromatin immunoprecipitation (ChIP-qPCR) of H3K9me2/H3K9me3; format: cell-based
Protocol: Histone methylations on the SNRPN locus in human fibroblasts were analyzed by chromatin immunoprecipitation assay (ChIP) using the protocol as previously reported (see Fulmer-Smentek et al., Human molecular genetics 10, 645-652 (2001)). ChIP assay was performed using ChIP-IT Express magnetic kit (Active Motif) according to the manufacturer's instructions with modification for the fixation and reverse-crosslinking steps. Briefly, native chromatin was prepared without fixation and enzymatic digestions to average 150-500 bp sized chromatin. 20 μg of chromatin was added to the specific antibodies (2 μg) or species control isotype antibodies for each immunoprecipitation reaction. The antibody-chromatin complexes were bound to protein G magnetic beads for recovering chromatin immunoprecipitates. RNase- and proteinase K-treated DNA was purified using PCR purification columns (Promega). DNA recovery was quantified by real time PCR performed on the LightCycler480 instrument (Roche) using SsoAdvanced Universal SYBR green Supermix (Biorad). Antibodies were anti-rabbit acetylated H3 (Millipore 06-599), anti-mouse monoclonal Histone H3 dimethyl K9 (Abcam 1220) and Histone H3 trimethyl K9 (Millipore, 07-442) antibodies. qPCR reactions were performed with the following cycling parameters: at 95° C./5 min followed by 40 cycles of 95° C./30 sec, 60° C./60 sec. Data was normalized to the total input.

| Compound | loss of body weight ([1]; WT mice) | general health and neurological screening ([1]; blinded) | histopathological analyses ([1]; brain, liver, kidney, lung and heart, P90 / 3 months) | hematological analysis (liver and kidney functions, lipid and protein metabolism) ([1]; treated m+/pΔS-U and WT mice) | DNA methylation of the PWS-IC [2] | inhibition of G9a activity in adult mice [3] | growth (body weight) [4] | DNA methylation of the PWS-IC [5] | cytotoxicity [6] | H3K9me2 in the region associated with NDN [7] | H3K9me2 enriched at the PWS-IC after treatment ([7]; ChIP-qPCR, reduction from 17-fold untreated, p<0.05) | H3K9me3 at host transcript of SNORD116 after treatment ([7]; ChIP-qPCR, reduction from 24-fold untreated, p<0.05) | H3K9me2 at host transcript of SNORD116 after treatment ([7]; ChIP-qPCR, reduction from 122-fold untreated, p<0.05) | level of H3K9me2 (and H3K9me3) in the PWS-IC ([7]; in words) |
| --- | --- | --- | --- | --- | --- | --- | --- | --- | --- | --- | --- | --- | --- | --- |
| COc1cc2c(NC3CCN(C(C)C)CC3)nc(N3CCC(F)(F)CC3)nc2cc1OCCCN1CCCC1 [UNC0642] | not observed | did not reveal any substantial abnormalities | did not reveal any abnormalities; also recorded: no significant compound related lesions | within normal ranges | did not significantly alter | sufficient to inhibit G9a activity | significant improvement of growth |  |  |  |  |  |  |  |
| COc1cc2c(NC3CCN(C(C)C)CC3)nc(C3CCCCC3)nc2cc1OCCCN1CCCC1 [UNC0638] |  |  |  |  |  |  |  | did not significantly alter | minimal cytotoxicity | reduced | 3 fold | 2 fold | 4 fold | drastically reduced |
